# Values quoted from earlier work in patent EP1694724B1, “pH SENSITIVE POLYMER AND PROCESS FOR PREPARATION THEREOF” (Council of Scientific and Industrial Research, priority 2003, dated 2005).
# Settings: humans
compound,measurement,value
"CO/N=C(\C(=O)N[C@@H]1C(=O)N2C(C(=O)OC(C)OC(C)=O)=C(COC(N)=O)CS[C@H]12)c1ccco1 (stereo partly shown) [Cefuroxime axetil, cefuroxime axetil]",bioavailability,32-50%
